In patent US20230340012A1, “NATURAL AND SYNTHETIC COMPOUNDS FOR TREATING CANCER AND OTHER DISEASES” (PACIFIC ARROW LIMITED, priority 2009, published 2023):
Values joined by “and” are separate entries in the source; they are usually repeats but may differ in a detail not shown here. Equal values may be shown once.

How the values were obtained:
[1] = test system: Human leukemia cells K562; assay: Apoptosis in K562 cells, Annexin V / propidium iodide flow cytometry; type: cell-based; conditions: for apoptotic cells population: two days, background 10-15%
Protocol: • 1. Cells: Human leukemia cells K562 cultured in RPMI1640 medium. • 2. Drug: Tig-S (1000x stock solution in DMSO). • 3. Start cells concentration: 500000/ml. • 4. Cells were cultured with drug (0 - 20 ug/ml) for Two days. • 5. Collect cells from culture (1 - 4 million) by centrifugation (136xg for 5 min. remove supernatant). • 6. Wash cells with 1 ml of cold PBS, collect cells by centrifugation (136xg, 5 min, remove supernatant). • 7. Re-suspend cells in 200 ul Binding buffer (10 mM HEPES, 140 mM NaCl, 2.5 mM CaCl2, pH 7.4). • 8. Stained cells by adding 10 ul Annexin V (Alexa Fluor 488, Invitrogen cat# A13201), and 2 ul Propidium iodide (1 mg/ml in water) to cell suspension. Mix. • 9. Sit at Room temperature for 15 min. • 10. Wash cells with 1 ml binding buffer. Collect cells by centrifugation. • 11. Re-suspend cells with in 1 ml of binding buffer for analysis by flow cytometry. • 12. Flow Cytometry analysis was performed in Baylor Core Facility with a LSRII instrument. • 13. Analysis: Control cells stained with PI or Annexin V-488 (Annexin V-FITC) alone were served as references. About 50000 cells were analyzed for each sample. • 14.Cell distribution in following groups: live, early apoptosis, late-apoptosis, total apoptosis and dead cells were determined. • 15.

Swiss3T3 cells = assay: MTT cytotoxicity, Swiss3T3 mouse normal fibroblast; type: cell-based; conditions: preliminary results
Protocol: Swiss3T3 cells are mouse normal fibroblast which were used in this experiment to compare with ES2 (human ovarian cancer) in Tig-R cytotoxicity determination.
MTT Assay. The procedure for MTT assay followed the method described by Carmichael et al. (1987) with modifications. The cells were seeded into a 96-well plate at for 24 hours before drug-treatment. The cells were then exposed to the drugs for 48, 72, or 96 hours. After the drug-treatment, MTT (0.5 mg/mL) was added to cultures and incubated for an hour. The formazan (product of the reduction of tetrazolium by viable cells) formed and was dissolved with DMSO and the O.D. at 490 nm, and was measured by an ELISA reader. The MTT level of the cells before drug-treatment was also measured (T0). The % cell-growth (%G) is calculated as: %G = (TD-T0 / TC-T0) x 100(1), where TC or TD represents O.D. readings of control or drug-treated cells. When T0 > TD, then the cytotoxicity (LC) expressed as % of the control is calculated as: %LC = (TD-T0 / T0) × 100(2).

[2] = test system: DR5 (TNFRSF10B) in HepG2 cells; assay: DR5 Western blot, HepG2 cells; type: cell-based, human; conditions: 2 days
Protocol: A. Cells and drug-treatment: HepG2 cells (liver cancer cells), CAPAN cells, ES2 cells (Ovary cell) were cultured in DMEM medium with 10% FBS, antibiotics (Pen Strep) and L-Glutamine in a 37° C., 5% CO2 incubator. Cells in log-growth phase were treated with Tig-R (10 ug/ml), Tig-S (4 ug/ml) or DMSO (as control) for 2 days.
B. Total cell protein extraction: Drug-treated cells were collected, pelleted with centrifugation. The cell pellet was extracted with SDS-Sample buffer (containing PMSF and protease inhibitors cocktail). About 0.1 gram cell pellet was extracted in 1 ml of extraction buffer. The cell extract was then incubated in boiling water bath for 6 minutes with occasionally vortexing. The protein extract was immediately frozen in -80° C. before used.
C. SDS gel electrophoresis: 10-20 ug of protein sample was loaded into each lane of a 10% SDS gel. Electrophoresis was conducted with 100 volt constant for 2 hours.
D. Western Blot: Separated proteins from SDS gel were transferred to a nitrocellulose membrane, which was blocked with 5% non-fat dry milk. The membrane was then exposed to 1st antibody (anti-TNFRSF10B) over night, then washed. The membrane was then incubated in 2nd antibody (anti-mouse-AP conjugated) for an hour, then washed. The immuno-bands were developed with BCIP/NBT substrate.
E. Another SDS gel with same sample loading was stained with Coomassie Brilliant Blue (CBB) for protein staining.
F. Determination of Western blot band intensity: The band-images of Western blot were captured with a digital camera and the intensity of bands was determined using “Image J” software.

HepG2 cells = assay: Combined effect of anti-DR5 and Tig-R in HepG2 cells, MTT; type: cell-based, human
Protocol: Cells Culture: HepG2 cells (liver cancer cells) were cultured in DMEM medium supplemented with 10% FBS, antibiotics (Pen Strep) and L-Glutamine. Cells were incubated in a 37° C., 5% CO2 incubator.
Antibody: Antibody against Human TRAIL R2/TNFRSF 10B, (from R&D Systems cat# MAB631-100).
Drug: Tig-R (5 and 7.5 ug/ml in culture medium).
Treatment. Cells in log-growth phase were used. Cells were plated in 96-welled plate with 10 K/well over night before treatment.
Antibodies are serially diluted with medium (started from 1 ug/ml) before adding to cell culture and incubated for 2 days.
For combination studies, Tig-R (5 ug/ml or 7.5 ug/ml) were added together with antibody. After a treatment for 2 days, the quantity of live cells is determined with MTT assay*. The percentage of cell growth with drugs was determined by comparing to those of no-drug (DMSO) control.
MTT assay. Cell growth activity was determined by MTT assay (Carmichael et al.,). […] The formation of formazan was dissolved with DMSO and the O.D. at 490 nm was measured by an ELISA reader. The MTT level of cells before drug-treatment was also measured (T0). The % cell-growth (%G) is calculated as: %G = (TD-T0 / TC-T0) × 100 (1) where TC or TD represent O.D. readings of control or drug-treated cells.
When T0 > TD, then the negative growth (cytotoxicity) is expressed as - % of the control and is calculated as: - %G = (TD-T0 / T0) × 100.

[3] = HepG2 cells, Tig-R 10 ug/ml, single experiments 1-4

Compound | apoptotic cells population ([1]; 2.5 ug/ml) | apoptotic cells population ([1]; 20 ug/ml) | mechanism of cell death ([1]; K562) | IC50 in SW3T3 cells (Swiss3T3 cells) | increase of DR5 over DMSO control cells ([2]; HepG2, Tig-R 10 ug/ml) | DR5 band intensity, % of DMSO, Average (%) ([2]; HepG2 cells, Tig-R 10 ug/ml, average of 4 experiments, SD 37) | DR5 Western blot band intensity (Image J) [2, 3] | DR5 band intensity, % of DMSO [2, 3] | combined effect with anti-DR5 antibody (HepG2 cells; HepG2, Tig-R 5 or 7.5 ug/ml) | inhibition of HepG2 cells' growth (HepG2 cells; Tig-R alone 5 ug/ml, 2 days)
CC=C(C)C(=O)OCC1(C)C(O)CCC2(C)C1CCC1(C)C2CC=C2C3CC(C)(C)C(OC(=O)C(C)=CC)C(O)C3(CO)C(O)CC21C (stereo not shown) [Tig-S] | 15% | 27% | induces cell-death by the apoptosis mechanism | – | – | – | – | – | – | –
24,28-O-Tigloyl-3β,16α, 21β, 22a, 24β, 28-hexahydroxyolean-12-ene [Tig-R] | – | – | – | above 20 ug/ml | 69% | 169% | 31752 and 19291 and 22435 and 33645 | 194% and 122% and 202% and 156% | synergistic | 15-20%
